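Interpolation was linear, between the two tested concentrations surrounding the appropriate level; five concentrations were tested over 48 hours in 96-well plates. GI50: concentration for 50% inhibition of growth. At the TGI there is no net growth.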
Tests used:
Assay in all cases: DTP human tumour cell line panel, 48 h
SK-MEL-5 melanoma = system: SK-MEL-5 melanoma
HCT-116 colon = system: HCT-116 colon
LOX IMVI melanoma = system: LOX IMVI melanoma
UO-31 renal = system: UO-31 renal
SF-295 CNS = system: SF-295 CNS
RXF 393 renal = system: RXF 393 renal
HCC-2998 colon = system: HCC-2998 colon
DU-145 prostate = system: DU-145 prostate
UACC-62 melanoma = system: UACC-62 melanoma
NCI-H460 lung = system: NCI-H460 lung
MDA-MB-435 = system: MDA-MB-435
A549 NSCLC = system: A549 NSCLC
UACC-257 melanoma = system: UACC-257 melanoma
SN12C renal = system: SN12C renal
ACHN renal = system: ACHN renal
OVCAR-3 ovarian = system: OVCAR-3 ovarian
IGROV1 ovarian = system: IGROV1 ovarian
NCI/ADR-RES ovarian = system: NCI/ADR-RES ovarian
HL-60(TB) leukemia = system: HL-60(TB) leukemia
EKVX NSCLC = system: EKVX NSCLC
K-562 leukemia = system: K-562 leukemia
MOLT-4 leukemia = system: MOLT-4 leukemia
MALME-3M melanoma = system: MALME-3M melanoma
OVCAR-5 ovarian = system: OVCAR-5 ovarian
CCRF-CEM leukemia = system: CCRF-CEM leukemia
SNB-75 CNS = system: SNB-75 CNS
SK-OV-3 ovarian = system: SK-OV-3 ovarian
HCT-15 colon = system: HCT-15 colon

## CN1CCN(c2ccc(N3Cc4ccccc4OC4=C3C(=O)c3c(O)ccc(O)c3C4=O)cn2)CC1
SK-MEL-5 melanoma
  GI50: 1270 nM
  TGI: 2750 nM
HCT-116 colon
  GI50: 113 nM
  TGI: 326 nM
LOX IMVI melanoma
  GI50: 215 nM
  TGI: 618 nM
UO-31 renal
  GI50: 163 nM
  TGI: 557 nM
SF-295 CNS
  GI50: 1870 nM
  TGI: 5000 nM
RXF 393 renal
  GI50: 164 nM
  TGI: 346 nM
HCC-2998 colon
  GI50: 1280 nM
  TGI: 2780 nM
DU-145 prostate
  GI50: 360 nM
  TGI: 1290 nM
UACC-62 melanoma
  GI50: 330 nM
  TGI: 1040 nM
NCI-H460 lung
  GI50: 1170 nM
  TGI: 3830 nM
MDA-MB-435
  GI50: 234 nM
  TGI: 575 nM
A549 NSCLC
  GI50: 2180 nM
  TGI: 6730 nM
UACC-257 melanoma
  GI50: 426 nM
  TGI: 1170 nM
SN12C renal
  GI50: 316 nM
  TGI: 1100 nM
ACHN renal
  GI50: 57.4 nM
  TGI: 203 nM
OVCAR-3 ovarian
  GI50: 167 nM
  TGI: 469 nM
IGROV1 ovarian
  GI50: 272 nM
  TGI: 1010 nM
NCI/ADR-RES ovarian
  GI50: 403 nM
  TGI: > 100000 nM
HL-60(TB) leukemia
  GI50: 135 nM
  TGI: 445 nM
EKVX NSCLC
  GI50: 244 nM
  TGI: 1240 nM
K-562 leukemia
  GI50: 71.3 nM
  TGI: 2530 nM
MOLT-4 leukemia
  GI50: 89.5 nM
  TGI: 5380 nM
MALME-3M melanoma
  GI50: 89.3 nM
  TGI: 298 nM
OVCAR-5 ovarian
  GI50: 692 nM
  TGI: 1950 nM
CCRF-CEM leukemia
  GI50: 97.2 nM
  TGI: > 33500 nM
SNB-75 CNS
  GI50: 907 nM
  TGI: 5400 nM
SK-OV-3 ovarian
  GI50: 2920 nM
  TGI: 11400 nM
HCT-15 colon
  GI50: 186 nM

Source: PubChem BioAssay (NCI)
